From patent US11633457B2, “Pharmaceutical compositions comprising oncostatin m (OSM) antagonist derivatives and methods of use” (Boise State University, priority 2019, dated 2023)

Experiments:
[1] = test system: STAT3, JNK, ERK, and AKT; settings: earlier work (U.S. Ser. No. 15/403,965); cited from earlier work
[2] = test system: prostate tumor cell; settings: earlier work (U.S. Ser. No. 15/403,965); cited from earlier work
[3] = test system: OSM-induced phosphorylation of STAT3 on Tyr-705 (pSTAT3); experiment: ELISA of OSM-induced phosphorylation of STAT3 (pSTAT3) with inhibitor pretreatment; format: cell-based, human; settings: for reduction in OSM induced phosphorylation of STAT3 (pSTAT3): 10, 50, and 100 μM per the method of Example 1, FIGS. 4A and 4B; for effect on OSM induced pSTAT3 phosphorylation, initial tests: OSM with or without inhibitor pretreatment, FIG. 3; for reduction of the OSM induced increase in pSTAT3 expression: initial testing, FIG. 6
Description: Therefore, the phosphyloration of various signaling pathways was assayed using an ELISA both with and without inhibitors and at various concentrations.
All human breast carcinoma cell lines used in this aim were purchased from the American Type Culture Collection (ATCC) or Caliper Life Sciences, and the growth of frozen cell aliquots will be initiated on a periodic basis to remove the possibility of cross-cell contamination. The cell lines were regularly tested for mycoplasma contamination by both DAPI staining and PCR. Four invasive ductal carcinoma cell lines, T47D, MCF7, MDA-MB-231 and MDA-MB-468, were used. These include the less aggressive, estrogen receptor-positive (ER+), progesterone receptor positive (PR+), HER2−, luminal T47D and MCF7-luc cell lines, as well as the triple negative breast cancer (TNBC) basal-like cell line, MDA-MB-231-LN-luc, that is metastatic in orthotopic xenografts and the less metastatic TNBC cell line MDA-MB-468. All cell lines express OSMRb, LIFRb, and gp130, as well as various levels of OSM, by RT-PCR
An enzyme-linked immunosorbent assay (ELISA) was used for analyzing initial OSM-induced phosphorylation of STAT3 on Tyr-705 (pSTAT3). T47D, MCF7, and MDA-MB-231 human breast cancer cells induced pSTAT3 upon stimulation with OSM (25 ng/ml) for 30 minutes. OSM-SMI-8 modified inhibitors were used to pretreat the cells in order to assay their ability to inhibit OSM-OSMR interactions. Pretreatment consisted of administering to the cells either 5, 10, 50, or 100 μM of the modified OSM-SMI-8 based inhibitor for 2 hours prior to administration of OSM.

[4] = test system: OSM induced secretion of IL-6; experiment: ELISA of OSM induced IL-6 secretion; format: cell-based; settings: pretreatment with inhibitor; FIG. 5
Description: (§1) OSM-SMI-10B was also assayed for its effect on OSM induced secretions of both VEGF and IL-6 by ELISA (FIG. 5).

[5] = test system: OSM induced secretion of VEGF; experiment: ELISA of OSM induced VEGF secretion; format: cell-based; settings: pretreatment with inhibitor; FIG. 5
Description: as §1

Row | Compound | reduction in OSM induced phosphorylation of STAT3 (pSTAT3) [3] | effect on OSM induced pSTAT3 phosphorylation, initial tests [3] | other results
1 | O=C(O)/C(=C\C=C\c1ccccc1)c1coc(-c2nc(/C(=C/C=C/c3ccccc3)C(=O)O)co2)n1 [OSM-SMI-8] |  |  | inhibition of OSM induced phosphorylation of STAT3, JNK, ERK, and AKT [1]: shown to inhibit; inhibition of OSM induced prostate tumor cell detachment [2]: shown to inhibit
2 | O=C(O)/C=C/c1cc(-c2ccc3c(c2)OCO3)c(-c2ccc3c(c2)OCO3)o1 [OSM-SMI-10B] | significant reduction in pSTAT3 at every treatment level | inhibitory effect | reduction in the OSM induction of IL-6 secretion [4]: large reduction; reduction in the OSM induction of VEGF secretion [5]: large reduction
3 | O=C(/C=C/c1cc(-c2ccc3c(c2)OCO3)c(-c2ccc3c(c2)OCO3)o1)c1ccccc1 [OSM-SMI-10C] | significant reduction in pSTAT3 at every treatment level | inhibitory effect | 
4 | CCOC(=O)/C=C/c1cc(-c2ccc3c(c2)OCO3)c(-c2ccc3c(c2)OCO3)o1 [OSM-SMI-10D] |  | inhibitory effect | 
5 | C(=N\Nc1ccccc1)/c1cc(-c2ccc3c(c2)OCO3)c(-c2ccc3c(c2)OCO3)o1 [OSM-SMI-10E] | significant reduction in pSTAT3 at every treatment level | inhibitory effect | 
6 | O=C(NCc1ccccc1)c1cc(-c2ccc3c(c2)OCO3)c(-c2ccc3c(c2)OCO3)o1 [OSM-SMI-10J] |  | inhibitory effect | 
7 | O=[N+]([O-])c1c(/C=N/Nc2ccccc2)oc(-c2ccc3c(c2)OCO3)c1-c1ccc2c(c1)OCO2 [OSM-SMI-10] |  |  | inhibition of OSM induced phosphorylation of STAT3, JNK, ERK, and AKT [1]: shown to inhibit; inhibition of OSM induced prostate tumor cell detachment [2]: shown to inhibit
8 | O=C(/C=C/c1ccccc1)c1cccc(N2C(=O)c3ccc(Oc4ccc5c(c4)C(=O)N(c4cccc(C(=O)/C=C/c6ccccc6)c4)C5=O)cc3C2=O)c1 [OSM-SMI-23] |  |  | reduction of the OSM induced increase in pSTAT3 expression [3]: more than about half
9 | Cc1ccc(-c2cc(C(=O)Nc3cccc(C(=O)O)c3)c3cc(Br)ccc3n2)cc1C [OSM-SMI-26] |  |  | reduction of the OSM induced increase in pSTAT3 expression [3]: more than about half
